Experiment [1] addresses T1, HCV polymerase (NS5B) type 1a (Hepatitis C virus genotype 1a, UniProt P26664).
T1 construct: made in house; host or cells: Escherichia coli (by the 'similar method' of the 1b enzyme)
Nature of the experiment: Assay of enzyme (HCV polymerase) inhibitory activity, type 1a enzyme. Type of experiment: biochemical, HCV type 1a (cloned from the blood of patients). As to conditions: HCV polymerase inhibitory activity (IC50), 1a, type 1a enzyme 1.5 μg/ml, 25° C., 60 min. The gist of the method: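 NS5B Δ47 C-term His6 (type 1a, 1.5 μg/ml); substrate RNA 5 μg/ml; ATP/GTP/CTP 50 μM, UTP 2 μM + [5,6-3H]UTP; Tris pH 7.5, MgCl2 5 mM; 25° C, 60 min. TCA/pyrophosphate stop, GF/B filter, scintillation. IC50 vs no-compound control.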

Experiment [2] concerns the target T2, HCV polymerase (NS5B) type 1b (Hepatitis C virus genotype 1b, UniProt P26663).
T2 construct: a region encoding NS5B (J Virol 1991 March, 65(3), 1105-13, 544 amino acids after deletion of 47 amino acids on the C-terminal); 6xHis (C); made in house; host or cells: Escherichia coli
Nature of the experiment: Assay of enzyme (HCV polymerase) inhibitory activity, type 1b enzyme. As to conditions: HCV polymerase inhibitory activity (IC50), 1b, type 1b enzyme 0.5 μg/ml, 25° C., 60 min. It is filed as biochemical, HCV BK strain (type 1b). The gist of the method: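 Rxn: NS5B 1b (BK, ΔC47, His6) 0.5 μg/ml; substrate RNA 5 μg/ml; ATP/GTP/CTP 50 μM, UTP 2 μM + [5,6-3H]UTP; 20 mM Tris pH 7.5, 5 mM MgCl2, 50 mM NaCl, 1 mM EDTA/DTT. 25 °C, 60 min. Stop with TCA/pyrophosphate, filter, scintillation count; IC50 vs. untreated.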

The results in this text go back to patent publication US8017612B2, “Piperazine compound and use thereof as a HCV polymerase inhibitor” (priority 2006, dated 2011).

pIC50: −log10 of the molar value. Structures can show the parent of a compound that is named as a salt. Bounds are passed on as bounds.

As usually defined, the pIC50 is the IC50 on a negative log10 scale, so that one unit is a factor of ten. A low value points to a large IC50.

For `COC(=O)CCOc1ccc(S(=O)(=O)N2CCN(C(C)=O)C[C@@H]2C(=O)NCc2ccc(C(C)C)cc2)cc1` [Example 250, 3-{4-[(R)-4-acetyl-2-(4-isopropyl-benzylcarbamoyl)-piperazine-1-sulfonyl]-phenoxy}-propionic acid methyl ester], the pIC50 in experiment [1] and in experiment [2] was 6.00 to 7.00 each time.
As to `CC(=O)N1CCN(S(=O)(=O)c2ccc(O)cc2)[C@@H](C(=O)NCc2ccc(C(C)C)cc2)C1` [Example 251, (R)-4-acetyl-1-(4-hydroxy-benzenesulfonyl)-piperazine-2-carboxylic acid 4-isopropyl-benzylamide], the pIC50 in experiment [1] and in experiment [2] was less than 6.00 throughout.
In the case of `COC(=O)CCC(=O)NCC(=O)N1CCN(S(=O)(=O)c2ccc(C(F)(F)F)cc2)[C@@H](C(=O)NCc2ccc(C(C)C)cc2)C1` [Example 252, N-{2-[(R)-3-(4-isopropyl-benzylcarbamoyl)-4-(4-trifluoromethyl-benzenesulfonyl)-piperazin-1-yl]-2-oxo-ethyl}-succinamic acid methyl ester], the negative-log IC50 (pIC50) in experiment [1] and in experiment [2] was 6.00 to 7.00 each time.
Consider `CC(=O)N1CCN(S(=O)(=O)c2ccc(C(C)C)cc2)[C@@H](C(=O)NCc2ccc(C(C)(C)C)cc2)C1` [Example 253, (R)-4-acetyl-1-(4-isopropyl-benzenesulfonyl)-piperazine-2-carboxylic acid 4-tert-butyl-benzylamide], for which the pIC50 in experiment [1] and in experiment [2] was more than 7.00 throughout.
As for `COC(=O)c1sc(N2CCN(S(=O)(=O)c3ccc(C(F)(F)F)cc3)[C@@H](C(=O)NCc3ccc(C(C)C)cc3)C2)nc1C` [Example 254, 2-[(R)-3-(4-isopropyl-benzylcarbamoyl)-4-(4-trifluoromethyl-benzenesulfonyl)-piperazin-1-yl]-4-methyl-thiazole-5-carboxylic acid methyl ester], the values for the pIC50 in experiment [1] and in experiment [2] were 6.00 to 7.00 and more than 7.00, respectively.
As to `COC(=O)Cc1csc(N2CCN(S(=O)(=O)c3ccc(C(F)(F)F)cc3)[C@@H](C(=O)NCc3ccc(C(C)C)cc3)C2)n1` [Example 255, {2-[(R)-3-(4-isopropyl-benzylcarbamoyl)-4-(4-trifluoromethyl-benzenesulfonyl)-piperazin-1-yl]-thiazol-4-yl}-acetic acid methyl ester], the pIC50 in experiment [1] and in experiment [2] was more than 7.00 throughout.
As for `CCOC(=O)COc1cccc(NC(=O)N2CCN(S(=O)(=O)c3ccc(C(F)(F)F)cc3)[C@@H](C(=O)NCc3ccc(C(C)C)cc3)C2)c1` [Example 256, (3-{[(R)-3-(4-isopropyl-benzylcarbamoyl)-4-(4-trifluoromethyl-benzenesulfonyl)-piperazine-1-carbonyl]-amino}-phenoxy)-acetic acid ethyl ester], the pIC50 in experiment [1] and in experiment [2] was 6.00 to 7.00 in each case.
With `CC(C)c1ccc(CNC(=O)[C@H]2CN(C(=O)Cn3cnnn3)CCN2S(=O)(=O)c2ccc(C(F)(F)F)cc2)cc1` [Example 257, (R)-4-(2-tetrazol-1-yl-acetyl)-1-(4-trifluoromethyl-benzenesulfonyl)-piperazine-2-carboxylic acid 4-isopropyl-benzylamide], the negative-log IC50 (pIC50) in experiment [1] and in experiment [2] was more than 7.00 throughout.
For `CC(C)c1ccc(CNC(=O)[C@H]2CN(C(=O)CC#N)CCN2S(=O)(=O)c2ccc(C(F)(F)F)cc2)cc1` [Example 258, (R)-4-(2-cyano-acetyl)-1-(4-trifluoromethyl-benzenesulfonyl)-piperazine-2-carboxylic acid 4-isopropyl-benzylamide], the pIC50 in experiment [1] and in experiment [2] was more than 7.00 throughout.
Turning to `CC(C)c1ccc(CNC(=O)[C@H]2CN(c3nc(CC(=O)O)cs3)CCN2S(=O)(=O)c2ccc(C(F)(F)F)cc2)cc1` [Example 259, {2-[(R)-3-(4-isopropyl-benzylcarbamoyl)-4-(4-trifluoromethyl-benzenesulfonyl)-piperazin-1-yl]-thiazol-4-yl}-acetic acid], the pIC50 in experiment [1] is 6.00 to 7.00; in experiment [2], more than 7.00.
On to `CC(C)c1ccc(CNC(=O)[C@H]2CN(C(=O)Nc3cccc(OCC(=O)O)c3)CCN2S(=O)(=O)c2ccc(C(F)(F)F)cc2)cc1` [Example 260, (3-{[(R)-3-(4-isopropyl-benzylcarbamoyl)-4-(4-trifluoromethyl-benzenesulfonyl)-piperazine-1-carbonyl]-amino}-phenoxy)-acetic acid], for which the pIC50 in experiment [1] and in experiment [2] was 6.00 to 7.00 each time.
Consider `CC(C)c1ccc(CNC(=O)[C@H]2CN(C(=O)Cc3nnn[nH]3)CCN2S(=O)(=O)c2ccc(C(F)(F)F)cc2)cc1` [Example 261, (R)-4-(2-1H-tetrazol-5-yl-acetyl)-1-(4-trifluoromethyl-benzenesulfonyl)-piperazine-2-carboxylic acid 4-isopropyl-benzylamide], for which the negative logarithm of the IC50 (pIC50) in experiment [1] was less than 6.00; in experiment [2], 6.00 to 7.00.
On to `CN(C)c1ccc(CNC(=O)[C@H]2CN(C(=O)CN)CCN2S(=O)(=O)c2ccc(C(F)(F)F)cc2)cc1` [Example 262, (R)-4-(2-amino-acetyl)-1-(4-trifluoromethyl-benzenesulfonyl)-piperazine-2-carboxylic acid 4-dimethylamino-benzylamide dihydrochloride], for which the negative-log IC50 (pIC50) in experiment [1] and in experiment [2] was less than 6.00 in each case.
`CC(=O)N1CCN(S(=O)(=O)c2cccc(C(F)(F)F)c2)[C@@H](C(=O)NCc2ccc(C(C)C)cc2)C1` [Example 263, (R)-4-acetyl-1-(3-trifluoromethyl-benzenesulfonyl)-piperazine-2-carboxylic acid 4-isopropyl-benzylamide]: the negative-log IC50 (pIC50) in experiment [1] and in experiment [2] was 6.00 to 7.00 each time.
In the case of `CC(=O)N1CCN(S(=O)(=O)c2ccc3c(c2)CCCCC3)[C@@H](C(=O)NCc2ccc(C(C)C)cc2)C1` [Example 264, (R)-4-acetyl-1-(6,7,8,9-tetrahydro-5H-benzocycloheptene-2-sulfonyl)-piperazine-2-carboxylic acid 4-isopropyl-benzylamide], the pIC50 in experiment [1] and in experiment [2] was more than 7.00 throughout.
Take `CC(C)c1ccc(CNC(=O)[C@H]2CN(C(=O)NS(=O)(=O)c3ccccc3)CCN2S(=O)(=O)c2ccc(C(F)(F)F)cc2)cc1` [Example 265, (R)-4-benzenesulfonylaminocarbonyl-1-(4-trifluoromethyl-benzenesulfonyl)-piperazine-2-carboxylic acid 4-isopropyl-benzylamide]: the negative-log IC50 (pIC50) in experiment [1] and in experiment [2] was less than 6.00 in each case.
With `COc1ccc(CC(=O)N2CCN(S(=O)(=O)c3ccc(C(F)(F)F)cc3)[C@@H](C(=O)NCc3ccc(C(C)C)cc3)C2)cc1` [Example 266, (R)-4-[2-(4-methoxy-phenyl)-acetyl]-1-(4-trifluoromethyl-benzenesulfonyl)-piperazine-2-carboxylic acid 4-isopropyl-benzylamide], the negative logarithm of the IC50 (pIC50) in experiment [1] and in experiment [2] was 6.00 to 7.00 each time.
Consider `COc1ccccc1CC(=O)N1CCN(S(=O)(=O)c2ccc(C(F)(F)F)cc2)[C@@H](C(=O)NCc2ccc(C(C)C)cc2)C1` [Example 267, (R)-4-[2-(2-methoxy-phenyl)-acetyl]-1-(4-trifluoromethyl-benzenesulfonyl)-piperazine-2-carboxylic acid 4-isopropyl-benzylamide], for which the pIC50 is less than 6.00 in experiment [1] and 6.00 to 7.00 in experiment [2].
`COc1cccc(CC(=O)N2CCN(S(=O)(=O)c3ccc(C(F)(F)F)cc3)[C@@H](C(=O)NCc3ccc(C(C)C)cc3)C2)c1` [Example 268, (R)-4-[2-(3-methoxy-phenyl)-acetyl]-1-(4-trifluoromethyl-benzenesulfonyl)-piperazine-2-carboxylic acid 4-isopropyl-benzylamide]: the pIC50 was less than 6.00 in experiment [1] and 6.00 to 7.00 in experiment [2].
For `CC(C)c1ccc(CNC(=O)[C@H]2CN(C(=O)Nc3ccccc3Cl)CCN2S(=O)(=O)c2ccc(C(F)(F)F)cc2)cc1` [Example 269, (R)-4-(4-trifluoromethyl-benzenesulfonyl)-piperazine-1,3-dicarboxylic acid 1-[(2-chloro-phenyl)-amide] 3-(4-isopropyl-benzylamide)], the pIC50 in experiment [1] and in experiment [2] was less than 6.00 throughout.
`CC(C)c1ccc(CNC(=O)[C@H]2CN(C(=O)Nc3cccc(Cl)c3)CCN2S(=O)(=O)c2ccc(C(F)(F)F)cc2)cc1` [Example 270, (R)-4-(4-trifluoromethyl-benzenesulfonyl)-piperazine-1,3-dicarboxylic acid 1-[(3-chloro-phenyl)-amide] 3-(4-isopropyl-benzylamide)]: the values for the negative-log IC50 (pIC50) in experiment [1] and in experiment [2] were less than 6.00 and 6.00 to 7.00, respectively.
In the same order, the values of `CC(C)c1ccc(CNC(=O)[C@H]2CN(C(=O)Nc3ccc(Cl)cc3)CCN2S(=O)(=O)c2ccc(C(F)(F)F)cc2)cc1` [Example 271, (R)-4-(4-trifluoromethyl-benzenesulfonyl)-piperazine-1,3-dicarboxylic acid 1-[(4-chloro-phenyl)-amide] 3-(4-isopropyl-benzylamide)] are less than 6.00 and less than 6.00.
